In BindingDB's records for PubMed 25415869 (Genentech):

Tests used:
[1] = biological target: Serine/threonine-protein kinase PAK 1 (Homo sapiens) (UniProt Q13153); assay: Inhibition of PAK1 (unknown origin)
[2] = biological target: Serine/threonine-protein kinase PAK 1 (Homo sapiens) (UniProt Q13153); assay: Inhibition of PAK1 (unknown origin) in presence of ATP by Z-LYTE enzymatic kinase assay
[3] = biological target: Serine/threonine-protein kinase PAK 1 (Homo sapiens) (UniProt Q13153); assay: Inhibition of PAK1 (unknown origin) in presence of ATP
[4] = biological target: Serine/threonine-protein kinase PAK 1 (Homo sapiens) (UniProt Q13153); assay: Inhibition of PAK1 (unknown origin) using 5-FAM-KPDRKKRYTVVGNPY-amide as substrate incubated for 120 mins by caliper off-chip mobility shift assay
[5] = biological target: Serine/threonine-protein kinase PAK1; assay: Inhibition of human recombinant PAK1 using KKRNRRLSVA as substrate assessed as inhibition constant preincubated with compound for 10 mins followed by substrate addition and measured after 60 mins by FRET assay

Chain of Serine/threonine-protein kinase PAK 1 (Homo sapiens) (Q13153 whole entry, looked up): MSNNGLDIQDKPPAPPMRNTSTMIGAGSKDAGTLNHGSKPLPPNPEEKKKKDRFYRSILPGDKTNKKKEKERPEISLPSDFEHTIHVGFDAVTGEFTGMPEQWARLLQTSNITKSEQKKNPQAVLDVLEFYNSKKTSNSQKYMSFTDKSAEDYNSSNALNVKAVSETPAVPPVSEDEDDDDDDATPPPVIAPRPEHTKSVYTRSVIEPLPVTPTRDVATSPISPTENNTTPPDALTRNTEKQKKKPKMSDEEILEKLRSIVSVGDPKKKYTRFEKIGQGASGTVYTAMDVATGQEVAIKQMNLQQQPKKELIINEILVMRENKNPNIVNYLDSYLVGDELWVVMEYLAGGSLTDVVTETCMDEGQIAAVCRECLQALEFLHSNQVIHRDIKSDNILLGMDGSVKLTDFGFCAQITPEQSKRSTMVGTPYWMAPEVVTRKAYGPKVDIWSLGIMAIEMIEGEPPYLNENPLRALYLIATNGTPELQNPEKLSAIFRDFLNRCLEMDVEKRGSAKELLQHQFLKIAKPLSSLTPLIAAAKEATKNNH

Row | SMILES | IC50 [1] [nM] | other results
1 | CCn1c(=O)c(-c2ccc(-c3noc(C)n3)cc2Cl)cc2cnc(Nc3ccc(C4CCN(C)CC4)cc3)nc21 | 4 | –
2 | CN1CCN(c2ccc(Nc3ncc4ccc(=O)n(C5CCCC5)c4n3)cc2)CC1 [Pyrido[2,3-d]pyrimidin-7-one 1] | – | IC50 [2]: 483 nM
3 | CCn1c(=O)c(-c2ccc(Cl)cc2Cl)cc2cnc(Nc3ccc(N4CCN(C)CC4)cc3)nc21 [FRAX414] | – | IC50 [2]: 20 nM
4 | O=C1NC(=O)c2cc(-c3ccccn3)ccc21 | – | IC50 [3]: > 100000 nM
5 | CN(Cc1ccc2[nH]ccc2n1)c1nccc(Nc2cc([C@H]3C[C@@H]3F)[nH]n2)n1 | 8 | –
6 | O=C(c1ccccc1Cl)c1n[nH]c2ncc(-c3cnn(C4CCNCC4)c3)cc12 | – | IC50 [4]: 20 nM
7 | CN[C@@H]1C[C@H]2O[C@@](C)([C@@H]1OC)n1c3ccccc3c3c4c(c5c6cc(O)ccc6n2c5c31)C(=O)NC4 | 1 | –
8 | CCN1c2ccc(F)cc2N=C(N2CCN(C)CC2)c2cc(Cl)ccc21 | 340 | –
9 | CCN(Cc1ccc2[nH]cnc2c1Cl)c1nccc(Nc2cc(C(C)C)[nH]n2)n1 | 1.6 | –
10 | Cc1nc2ccc(C#CC(C)(C)O)cc2n1-c1ncnc(N)n1 | – | Ki [5]: 15300 nM
